Among the data in PubChem BioAssay (NCI) are GI50 and TGI values, retold here.

Molecules are shown by their SMILES.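 Five compound concentrations were applied to cells in 96-well plates for 48 hours; endpoints were derived by simple linear interpolation of the resulting dose-response curve. GI50 = concentration required for 50% inhibition of growth. The concentration for full growth arrest is given as TGI.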

In the first experiment the test system is PC-3 prostate. Put plainly: NCI tumour cell line growth inhibition, 48 h.
`COc1cc(OC)cc(-c2ccc(-c3ccc(C(=N)N)o3)o2)c1`: the GI50 was 4.77 µM and the TGI turned out to be 17.5 µM.
Turning to `C[C@]12CC[C@H](O)CC1=CC[C@@H]1[C@@H]2CC[C@]2(C)C(c3cccnc3)=CC[C@@H]12`, the GI50 is over 100 µM and the TGI is over 100 µM.
As for `Cc1ccc2c(c1)C(=O)/C(=C/c1ncc([N+](=O)[O-])n1C)O2`, the GI50 is 2.35 µM and the TGI is over 24.9 µM.
Compound `CC1OC(n2cc(F)c(=O)[nH]c2=O)CCC1O` (stereo not given) returned a TGI of over 100 µM.
With `O=C(NCCOCCOCCNc1cccc2c1C(=O)N(C1CCCNC1=O)C2=O)c1cc2c(o1)C(=O)c1ccccc1C2=O` (stereo not given), the GI50 is 2.63 µM and the TGI was determined as 46 µM.
As for `O=C(CN1CCOCC1)Nc1ccc(Cn2nnc3c2C(=O)c2nnn(Cc4ccc(NC(=O)CN5CCOCC5)cc4)c2C3=O)cc1`, the GI50 was 0.644 µM and the TGI amounted to 5.63 µM.
As to `O=C(c1ccco1)c1nc2ccc(C(F)(F)F)cc2[n+]([O-])c1C(F)(F)F`, the GI50 was 28.7 µM and the TGI is over 100 µM.
Regarding `CCCCC/C(C=C(C#N)C#N)=C/c1ccccc1`, the GI50 was 3.13 µM and the TGI was determined as 12.2 µM.
Compound `CC1CCC2(C(=O)O)CCC3(C)C(=CCC4C5(C)CC(O)C(O)C(C)(CO)C5C(O)CC43C)C2C1C` (stereo not given) gave a TGI of over 100 µM.
Still for that read-out and setting: next, `COc1cnc2cc(C(=O)O)c3c([N+](=O)[O-])cccc3c2c1`: over 100 µM.
Take `Cc1ccc(S(=O)(=O)N(CCOc2ccc(/C(N)=N/Cl)cc2)CCOc2ccc(/C(N)=N\Cl)cc2)cc1`: the GI50 was 33.7 µM and the TGI was over 100 µM.
`COc1ccc(C2=NN(C(=O)c3cc(OC)c(OC)c(OC)c3)C(c3ccc(C#N)cc3)C2)cc1OC` (stereo not given): the GI50 was 1.94 µM and the TGI was over 52.3 µM.

In a further experiment the test system is CCRF-CEM leukemia. Put plainly: NCI tumour cell line growth inhibition, 48 h.
As to `COc1cc(OC)cc(-c2ccc(-c3ccc(C(=N)N)o3)o2)c1`, the GI50 was 2.72 µM and the TGI was found to be 7.72 µM.
On to `C[C@]12CC[C@H](O)CC1=CC[C@@H]1[C@@H]2CC[C@]2(C)C(c3cccnc3)=CC[C@@H]12`, for which the GI50 is over 96.6 µM and the TGI is over 100 µM.
As for `Cc1ccc2c(c1)C(=O)/C(=C/c1ncc([N+](=O)[O-])n1C)O2`, the GI50 was 0.324 µM and the TGI was 2.95 µM.
`CC1OC(n2cc(F)c(=O)[nH]c2=O)CCC1O` (stereo not given) displayed a TGI of over 100 µM.
For `O=C(NCCOCCOCCNc1cccc2c1C(=O)N(C1CCCNC1=O)C2=O)c1cc2c(o1)C(=O)c1ccccc1C2=O` (stereo not given), the GI50 was 4.48 µM and the TGI was over 100 µM.
In the case of `O=C(CN1CCOCC1)Nc1ccc(Cn2nnc3c2C(=O)c2nnn(Cc4ccc(NC(=O)CN5CCOCC5)cc4)c2C3=O)cc1`, the GI50 is 0.233 µM and the TGI turned out to be 1.6 µM.
With `O=C(c1ccco1)c1nc2ccc(C(F)(F)F)cc2[n+]([O-])c1C(F)(F)F`, the GI50 is over 100 µM and the TGI was over 100 µM.
As to `CCCCC/C(C=C(C#N)C#N)=C/c1ccccc1`, the GI50 is 2.51 µM and the TGI was 6.96 µM.
`CC1CCC2(C(=O)O)CCC3(C)C(=CCC4C5(C)CC(O)C(O)C(C)(CO)C5C(O)CC43C)C2C1C` (stereo not given) yielded a TGI of 53.3 µM.
The same measure, in the same setting: next, `COc1cnc2cc(C(=O)O)c3c([N+](=O)[O-])cccc3c2c1`: over 100 µM.
`Cc1ccc(S(=O)(=O)N(CCOc2ccc(/C(N)=N/Cl)cc2)CCOc2ccc(/C(N)=N\Cl)cc2)cc1`: the GI50 was 11.6 µM and the TGI was over 100 µM.
The like results for `COc1ccc(C2=NN(C(=O)c3cc(OC)c(OC)c(OC)c3)C(c3ccc(C#N)cc3)C2)cc1OC` (stereo not given) were, in that order, 3.03 µM and over 100 µM.

The test system of the next experiment is SNB-19 CNS. The experiment in a line: NCI tumour cell line growth inhibition, 48 h.
For the compound `COc1cc(OC)cc(-c2ccc(-c3ccc(C(=N)N)o3)o2)c1`, the GI50 was 3.02 µM and the TGI was determined as 10.6 µM.
Regarding `C[C@]12CC[C@H](O)CC1=CC[C@@H]1[C@@H]2CC[C@]2(C)C(c3cccnc3)=CC[C@@H]12`, the GI50 is 26.8 µM and the TGI was over 100 µM.
Take `Cc1ccc2c(c1)C(=O)/C(=C/c1ncc([N+](=O)[O-])n1C)O2`: the GI50 was 2.36 µM and the TGI is over 25.6 µM.
Consider `CC1OC(n2cc(F)c(=O)[nH]c2=O)CCC1O` (stereo not given), for which the TGI was over 100 µM.
`O=C(NCCOCCOCCNc1cccc2c1C(=O)N(C1CCCNC1=O)C2=O)c1cc2c(o1)C(=O)c1ccccc1C2=O` (stereo not given): the GI50 was 2.42 µM and the TGI amounted to 9.84 µM.
The corresponding values for `O=C(CN1CCOCC1)Nc1ccc(Cn2nnc3c2C(=O)c2nnn(Cc4ccc(NC(=O)CN5CCOCC5)cc4)c2C3=O)cc1` are 0.41 µM and 1.57 µM.
The like results for `O=C(c1ccco1)c1nc2ccc(C(F)(F)F)cc2[n+]([O-])c1C(F)(F)F` were, in that order, 36.4 µM and over 100 µM.
In the case of `CCCCC/C(C=C(C#N)C#N)=C/c1ccccc1`, the GI50 was 6.53 µM and the TGI turned out to be 21.8 µM.
Compound `CC1CCC2(C(=O)O)CCC3(C)C(=CCC4C5(C)CC(O)C(O)C(C)(CO)C5C(O)CC43C)C2C1C` (stereo not given) showed a TGI of 56.1 µM.
`COc1cnc2cc(C(=O)O)c3c([N+](=O)[O-])cccc3c2c1` returned a TGI of over 100 µM.
For `Cc1ccc(S(=O)(=O)N(CCOc2ccc(/C(N)=N/Cl)cc2)CCOc2ccc(/C(N)=N\Cl)cc2)cc1`, the GI50 was 5.65 µM and the TGI is over 100 µM.
The like results for `COc1ccc(C2=NN(C(=O)c3cc(OC)c(OC)c(OC)c3)C(c3ccc(C#N)cc3)C2)cc1OC` (stereo not given) were, in that order, 3.02 µM and over 68.2 µM.

The next experiment relates to NCI-H522 lung. Put plainly: NCI tumour cell line growth inhibition, 48 h.
As for `COc1cc(OC)cc(-c2ccc(-c3ccc(C(=N)N)o3)o2)c1`, the GI50 is 2.3 µM and the TGI turned out to be 7.4 µM.
`C[C@]12CC[C@H](O)CC1=CC[C@@H]1[C@@H]2CC[C@]2(C)C(c3cccnc3)=CC[C@@H]12`: the GI50 is 10.1 µM and the TGI is over 100 µM.
Take `Cc1ccc2c(c1)C(=O)/C(=C/c1ncc([N+](=O)[O-])n1C)O2`: the GI50 was 1.5 µM and the TGI was 3.38 µM.
The compound `CC1OC(n2cc(F)c(=O)[nH]c2=O)CCC1O` (stereo not given) showed a TGI of over 100 µM.
For the compound `O=C(NCCOCCOCCNc1cccc2c1C(=O)N(C1CCCNC1=O)C2=O)c1cc2c(o1)C(=O)c1ccccc1C2=O` (stereo not given), the GI50 is 2 µM and the TGI is 4.77 µM.
The corresponding values for `O=C(CN1CCOCC1)Nc1ccc(Cn2nnc3c2C(=O)c2nnn(Cc4ccc(NC(=O)CN5CCOCC5)cc4)c2C3=O)cc1` are 0.191 µM and 0.587 µM.
Turning to `O=C(c1ccco1)c1nc2ccc(C(F)(F)F)cc2[n+]([O-])c1C(F)(F)F`, the GI50 is over 100 µM and the TGI was over 100 µM.
On to `CCCCC/C(C=C(C#N)C#N)=C/c1ccccc1`, for which the GI50 is 4.5 µM and the TGI was found to be 19.7 µM.
As for `CC1CCC2(C(=O)O)CCC3(C)C(=CCC4C5(C)CC(O)C(O)C(C)(CO)C5C(O)CC43C)C2C1C` (stereo not given), the TGI was found to be 33.9 µM.
On to `COc1cnc2cc(C(=O)O)c3c([N+](=O)[O-])cccc3c2c1`, for which the TGI is over 100 µM.
Take `Cc1ccc(S(=O)(=O)N(CCOc2ccc(/C(N)=N/Cl)cc2)CCOc2ccc(/C(N)=N\Cl)cc2)cc1`: the GI50 was 13.3 µM and the TGI was 76.4 µM.
For the compound `COc1ccc(C2=NN(C(=O)c3cc(OC)c(OC)c(OC)c3)C(c3ccc(C#N)cc3)C2)cc1OC` (stereo not given), the GI50 is 0.222 µM and the TGI came out at 1.24 µM.

In a further experiment the test system is MALME-3M melanoma. Put plainly: NCI tumour cell line growth inhibition, 48 h.
As to `COc1cc(OC)cc(-c2ccc(-c3ccc(C(=N)N)o3)o2)c1`, the GI50 was 2.04 µM and the TGI turned out to be 4.21 µM.
For `C[C@]12CC[C@H](O)CC1=CC[C@@H]1[C@@H]2CC[C@]2(C)C(c3cccnc3)=CC[C@@H]12`, the GI50 is 54.3 µM and the TGI was over 100 µM.
As to `Cc1ccc2c(c1)C(=O)/C(=C/c1ncc([N+](=O)[O-])n1C)O2`, the GI50 was 1.8 µM and the TGI was found to be 4.37 µM.
`CC1OC(n2cc(F)c(=O)[nH]c2=O)CCC1O` (stereo not given): the TGI is over 100 µM.
As for `O=C(NCCOCCOCCNc1cccc2c1C(=O)N(C1CCCNC1=O)C2=O)c1cc2c(o1)C(=O)c1ccccc1C2=O` (stereo not given), the GI50 was 0.176 µM and the TGI is 0.401 µM.
Turning to `O=C(CN1CCOCC1)Nc1ccc(Cn2nnc3c2C(=O)c2nnn(Cc4ccc(NC(=O)CN5CCOCC5)cc4)c2C3=O)cc1`, the GI50 is 0.178 µM and the TGI is 0.469 µM.
The corresponding values for `O=C(c1ccco1)c1nc2ccc(C(F)(F)F)cc2[n+]([O-])c1C(F)(F)F` are 27.9 µM and 77.2 µM.
Regarding `CCCCC/C(C=C(C#N)C#N)=C/c1ccccc1`, the GI50 is 3.11 µM and the TGI was determined as 16.5 µM.
Take `CC1CCC2(C(=O)O)CCC3(C)C(=CCC4C5(C)CC(O)C(O)C(C)(CO)C5C(O)CC43C)C2C1C` (stereo not given): the TGI is over 100 µM.
On the same count and under the same terms, next, `COc1cnc2cc(C(=O)O)c3c([N+](=O)[O-])cccc3c2c1`: over 100 µM.
Regarding `Cc1ccc(S(=O)(=O)N(CCOc2ccc(/C(N)=N/Cl)cc2)CCOc2ccc(/C(N)=N\Cl)cc2)cc1`, the GI50 is 19.6 µM and the TGI is 83.6 µM.
For `COc1ccc(C2=NN(C(=O)c3cc(OC)c(OC)c(OC)c3)C(c3ccc(C#N)cc3)C2)cc1OC` (stereo not given), the GI50 is 14.6 µM and the TGI was over 78.9 µM.
